Results from the supplement of paper PMC10307832.

Legend:
Assay in all cases: relative viability (nuclei count vs DMSO), 5 days (fraction); higher = more cells survive
KN-93 + Luminespib = compound: CN(C/C=C/C1=CC=C(C=C1)Cl)CC2=CC=CC=C2N(CCO)S(=O)(=O)C3=CC=C(C=C3)OC [KN-93] + CCNC(=O)c1noc(-c2cc(C(C)C)c(O)cc2O)c1-c1ccc(CN2CCOCC2)cc1 [Luminespib] (partner 0.01 µM)
How it was run: (§1)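 After 5 days of treatment, lung cancer cells in 1536-well plates were fixed and stained in a single step (final 0.05% Triton X-100, 1% formaldehyde, 1 ug/ml Hoechst) and their nuclei counted on 4× images. Treatment had been applied by pin tool the day after seeding as one drug alone or as a fixed anchor-drug dose with five library-drug doses (not always all listed) in √10 steps. Relative viability is the nuclei count of treated wells divided by that of vehicle wells, and values are medians of duplicate plates.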

KN-93 + Vorinostat = compound: CN(C/C=C/C1=CC=C(C=C1)Cl)CC2=CC=CC=C2N(CCO)S(=O)(=O)C3=CC=C(C=C3)OC [KN-93] + O=C(CCCCCCC(=O)Nc1ccccc1)NO [Vorinostat] (partner 1 µM)
How it was run: as §1

KN-93 + Trametinib = compound: CN(C/C=C/C1=CC=C(C=C1)Cl)CC2=CC=CC=C2N(CCO)S(=O)(=O)C3=CC=C(C=C3)OC [KN-93] + CC(=O)Nc1cccc(-n2c(=O)n(C3CC3)c(=O)c3c(Nc4ccc(I)cc4F)n(C)c(=O)c(C)c32)c1 [Trametinib] (partner 0.02 µM)
How it was run: as §1

KN-93 + OSI-027 = compound: CN(C/C=C/C1=CC=C(C=C1)Cl)CC2=CC=CC=C2N(CCO)S(=O)(=O)C3=CC=C(C=C3)OC [KN-93] + COc1cccc2cc(-c3nc([C@H]4CC[C@H](C(=O)O)CC4)n4ncnc(N)c34)[nH]c12 [OSI-027] (partner 0.5 µM)
How it was run: as §1

KN-93 + AZD7762 = compound: CN(C/C=C/C1=CC=C(C=C1)Cl)CC2=CC=CC=C2N(CCO)S(=O)(=O)C3=CC=C(C=C3)OC [KN-93] + NC(=O)Nc1cc(-c2cccc(F)c2)sc1C(=O)N[C@H]1CCCNC1 [AZD7762] (partner 0.2 µM)
How it was run: as §1

Cell Line	relative viability (KN-93 + Luminespib; first compound 0.08 µM)	relative viability (KN-93 + Luminespib; first compound 0.253 µM)	relative viability (KN-93 + Luminespib; first compound 2.53 µM)	relative viability (KN-93 + Luminespib; first compound 8 µM)	relative viability (KN-93 + Vorinostat; first compound 0.08 µM)	relative viability (KN-93 + Vorinostat; first compound 0.253 µM)	relative viability (KN-93 + Vorinostat; first compound 2.53 µM)	relative viability (KN-93 + Vorinostat; first compound 8 µM)	relative viability (KN-93 + Trametinib; first compound 0.08 µM)	relative viability (KN-93 + Trametinib; first compound 0.253 µM)	relative viability (KN-93 + Trametinib; first compound 2.53 µM)	relative viability (KN-93 + Trametinib; first compound 8 µM)	relative viability (KN-93 + OSI-027; first compound 0.08 µM)	relative viability (KN-93 + OSI-027; first compound 0.253 µM)	relative viability (KN-93 + OSI-027; first compound 2.53 µM)	relative viability (KN-93 + OSI-027; first compound 8 µM)	relative viability (KN-93 + AZD7762; first compound 0.08 µM)	relative viability (KN-93 + AZD7762; first compound 0.253 µM)	relative viability (KN-93 + AZD7762; first compound 2.53 µM)	relative viability (KN-93 + AZD7762; first compound 8 µM)
201T	1.04	1.16	0.958	0.697	0.875	0.958	0.873	0.698	0.714	0.754	0.711	0.599	0.789	0.558	0.884	0.373	0.616	0.707	0.658	0.619
A-427	1.16	1.2	0.866	0.307	0.856	0.862	0.868	0.59	0.799	0.746	0.772	0.438	0.507	0.621	0.462	0.265	0.657	0.771	1.03	0.548
ABC-1	0.701	0.752	0.368	0.271	0.92	1.66	0.586	0.427	–	–	–	–	0.455	0.294	0.509	0.257	0.924	1.05	0.869	0.38
BEN	0.322	0.331	0.619	0.214	0.637	0.596	0.599	0.487	1.08	1.19	1.18	0.67	0.323	0.308	0.304	0.304	0.771	0.661	0.678	0.442
CAL-12T	0.208	0.27	0.573	0.336	0.833	1.01	0.783	0.687	0.345	0.35	0.289	0.28	0.718	0.59	0.657	0.434	0.56	0.628	0.667	0.399
COR-L23	0.604	1	0.978	0.424	0.448	0.46	0.509	0.402	0.554	0.625	0.722	0.395	0.748	1.02	0.798	0.353	–	–	–	–
COR-L 105	0.765	0.869	0.675	0.739	0.632	0.824	0.551	0.836	0.452	0.41	0.437	0.399	0.618	0.771	0.588	0.437	–	–	–	–
